Experimental data published in patent US7709471B2, “Compounds” (AstraZeneca AB, priority 2006, dated 2010).
Structures can show the parent of a compound that is named as a salt.

What was measured:
recombinant Plk1 = recombinant Plk1 (Homo sapiens, UniProt P53350); experiment: In Vitro Plk1 Enzyme Assay (SPA, GST-Cdc25C phosphorylation); assay type: biochemical; settings: ATP 64 nM, 90 minutes, read-out: IC50 (Plk1 enzyme inhibition)
[1] = test system: human colon tumour cell line HT29; experiment: Cellular Assay (phosphohistone H3 Ser10 mitotic marker, HT29); assay type: cell-based; settings: HT-29, 24 h, HT29 cells, read-out: IC50 (cellular assay, phosphohistone H3)

Sequence of recombinant Plk1 (P53350 whole entry): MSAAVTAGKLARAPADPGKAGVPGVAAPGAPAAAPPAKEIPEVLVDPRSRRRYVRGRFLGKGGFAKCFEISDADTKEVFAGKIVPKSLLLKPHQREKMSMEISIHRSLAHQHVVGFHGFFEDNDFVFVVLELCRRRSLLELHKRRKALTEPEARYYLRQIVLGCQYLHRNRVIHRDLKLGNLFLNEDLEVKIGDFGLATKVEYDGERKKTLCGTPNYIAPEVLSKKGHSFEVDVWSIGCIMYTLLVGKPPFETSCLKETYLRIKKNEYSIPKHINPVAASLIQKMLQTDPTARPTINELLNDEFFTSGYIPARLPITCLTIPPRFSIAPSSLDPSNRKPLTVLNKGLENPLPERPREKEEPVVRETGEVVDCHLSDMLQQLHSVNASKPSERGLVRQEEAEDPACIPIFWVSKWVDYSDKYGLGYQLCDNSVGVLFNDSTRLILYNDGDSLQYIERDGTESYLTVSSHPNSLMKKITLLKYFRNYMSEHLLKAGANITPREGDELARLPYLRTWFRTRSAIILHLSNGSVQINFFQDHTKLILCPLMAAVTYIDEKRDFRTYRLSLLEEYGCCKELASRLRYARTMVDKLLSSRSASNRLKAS

| IC50 (recombinant Plk1) | IC50 [1] | Structure (SMILES) |
| --- | --- | --- |
| < 1000 nM | < 30000 nM | CN1C(=O)CCN(C2CCCC2)c2nc(Nc3cccc(CCO)c3)ncc21 [Example 179, 6-cyclopentyl-9-[[3-(2-hydroxyethyl)phenyl]amino]-2-methyl-2,6,8,10-tetrazabicyclo[5.4.0]undeca-8,10,12-trien-3-one] |
| < 300 nM | < 300 nM | COc1cc(C(=O)NCC(C)(C)CN(C)C)ccc1Nc1ncc2c(n1)N(C1CCCC1)CCC(=O)N2C [Example 10, 4-[(2-Cyclopentyl-6-methyl-5-oxo-2,6,9,11-tetrazabicyclo[5.4.0]undeca-8,10,12-trien-10-yl)amino]-N-(3-dimethylamino-2,2-dimethyl-propyl)-3-methoxy-benzamide hydrochloride] |
| < 300 nM | < 300 nM | COc1cc(C(=O)NC2CCNCC2)ccc1Nc1ncc2c(n1)N(C1CCCC1)CCC(=O)N2C [Example 41, 4-[(6-cyclopentyl-2-methyl-3-oxo-2,6,8,10-tetrazabicyclo[5.4.0]undeca-8,10,12-trien-9-yl)amino]-3-methoxy-N-(4-piperidyl)benzamide] |
| < 300 nM | < 300 nM | COc1cc(C(=O)NCCN(C)C)ccc1Nc1ncc2c(n1)N(C(C)C)CCC(=O)N2C [Example 207, N-(2-dimethylaminoethyl)-3-methoxy-4-[(2-methyl-3-oxo-6-propan-2-yl-2,6,8,10-tetrazabicyclo[5.4.0]undeca-7,9,11-trien-9-yl)amino]benzamide] |
| < 300 nM | < 300 nM | COc1cc(C(=O)NCCC2CCCCN2C)ccc1Nc1ncc2c(n1)N(C1CCCC1)CCC(=O)N2C (stereo not shown) [Example 85, 4-[(6-cyclopentyl-2-methyl-3-oxo-2,6,8,10-tetrazabicyclo[5.4.0]undeca-8,10,12-trien-9-yl)amino]-3-methoxy-N-[2-(1-methyl-2-piperidyl)ethyl]benzamide] |
| < 1000 nM | < 1000 nM | COc1cc(C(=O)NC2CCN(C)CC2)ccc1Nc1ncc2c(n1)N(CCC(C)C)CCC(=O)N2C [Example 7, 3-Methoxy-4-[[6-methyl-2-(3-methylbutyl)-5-oxo-2,6,9,11-tetrazabicyclo[5.4.0]undeca-7,9,11-trien-10-yl]amino]-N-(1-methyl-4-piperidyl)benzamide] |
| < 300 nM | < 30000 nM | COc1cc(C(=O)NCCCCN)ccc1Nc1ncc2c(n1)N(C1CCCC1)CCC(=O)N2C [Example 40, N-(4-aminobutyl)-4-[(6-cyclopentyl-2-methyl-3-oxo-2,6,8,10-tetrazabicyclo[5.4.0]undeca-8,10,12-trien-9-yl)amino]-3-methoxy-benzamide] |
| < 1000 nM | < 300 nM | COc1cc(C(=O)Nc2ccncc2)ccc1Nc1ncc2c(n1)N(C1CCCC1)CCC(=O)N2C [Example 67, 4-[(6-cyclopentyl-2-methyl-3-oxo-2,6,8,10-tetrazabicyclo[5.4.0]undeca-8,10,12-trien-9-yl)amino]-3-methoxy-N-pyridin-4-yl-benzamide] |
| < 300 nM | < 300 nM | CCCN1CCC(NC(=O)c2ccc(Nc3ncc4c(n3)N(C3CCCC3)CCC(=O)N4C)c(OC)c2)CC1 [Example 314, 4-[(2-cyclopentyl-6-methyl-5-oxo-2,6,9,11-tetrazabicyclo[5.4.0]undeca-7,9,11-trien-10-yl)amino]-3-methoxy-N-(1-propyl-4-piperidyl)benzamide] |
| < 1000 nM | < 300 nM | COc1cc(C(=O)NC2CCCN(C)C2)ccc1Nc1ncc2c(n1)N(C1CCCC1)CC(C)(C)C(=O)N2C (stereo not shown) [Example 243, 4-[(2-cyclopentyl-4,4,6-trimethyl-5-oxo-2,6,9,11-tetrazabicyclo[5.4.0]undeca-7,9,11-trien-10-yl)amino]-3-methoxy-N-(1-methyl-3-piperidyl)benzamide] |
| < 300 nM | < 30000 nM | COc1cc(C(=O)NCCCN)ccc1Nc1ncc2c(n1)N(C1CCCC1)CCC(=O)N2C [Example 42, N-(3-aminopropyl)-4-[(6-cyclopentyl-2-methyl-3-oxo-2,6,8,10-tetrazabicyclo[5.4.0]undeca-8,10,12-trien-9-yl)amino]-3-methoxy-benzamide] |
| < 300 nM | < 300 nM | COc1cc(C(=O)NCCCN2CCOCC2)ccc1Nc1ncc2c(n1)N(C1CCCC1)CCC(=O)N2C [Example 25, 4-[(6-cyclopentyl-2-methyl-3-oxo-2,6,8,10-tetrazabicyclo[5.4.0]undeca-8,10,12-trien-9-yl)amino]-3-methoxy-N-(3-morpholin-4-ylpropyl)benzamide] |
| < 300 nM | < 300 nM | CN1C(=O)CCN(C2CCCC2)c2nc(Nc3cc(F)c(C(=O)N[C@@H]4CCNC4)cc3Cl)ncc21 [Example 321, 5-chloro-4-[(2-cyclopentyl-6-methyl-5-oxo-2,6,9,11-tetrazabicyclo[5.4.0]undeca-7,9,11-trien-10-yl)amino]-2-fluoro-N-[(3R)-pyrrolidin-3-yl]benzamide] |
| < 1000 nM | < 300 nM | COc1cc(C(=O)NC(C)(C)CN2CCCC2)ccc1Nc1ncc2c(n1)N(C1CCCC1)CCC(=O)N2C [Example 81, 4-[(6-cyclopentyl-2-methyl-3-oxo-2,6,8,10-tetrazabicyclo[5.4.0]undeca-8,10,12-trien-9-yl)amino]-3-methoxy-N-(2-methyl-1-pyrrolidin-1-yl-propan-2-yl)benzamide] |
| < 300 nM | < 300 nM | COc1cc(C(=O)NCC(C)(C)N2CCCCC2)ccc1Nc1ncc2c(n1)N(C1CCCC1)CCC(=O)N2C [Example 75, 4-[(6-cyclopentyl-2-methyl-3-oxo-2,6,8,10-tetrazabicyclo[5.4.0]undeca-8,10,12-trien-9-yl)amino]-3-methoxy-N-[2-methyl-2-(1-piperidyl)propyl]benzamide] |
| < 300 nM | < 300 nM | COc1cc(C(=O)N[C@@H]2CCNC2)ccc1Nc1ncc2c(n1)N(C1CCCC1)CCC(=O)N2C [Example 55, 4-[(6-cyclopentyl-2-methyl-3-oxo-2,6,8,10-tetrazabicyclo[5.4.0]undeca-8,10,12-trien-9-yl)amino]-3-methoxy-N-[(3R)-pyrrolidin-3-yl]benzamide] |
| < 100000 nM | < 30000 nM | COc1cc(C(=O)NC2CCCCC2)ccc1Nc1ncc2c(n1)N(CCN1CCOCC1)CCC(=O)N2C [Example 277, N-cyclohexyl-3-methoxy-4-[[6-methyl-2-(2-morpholin-4-ylethyl)-5-oxo-2,6,9,11-tetrazabicyclo[5.4.0]undeca-7,9,11-trien-10-yl]amino]benzamide] |
| < 300 nM | < 300 nM | CNCCNC(=O)c1ccc(Nc2ncc3c(n2)N(C2CCCC2)CCC(=O)N3C)c(OC)c1 [Example 43, 4-[(6-cyclopentyl-2-methyl-3-oxo-2,6,8,10-tetrazabicyclo[5.4.0]undeca-8,10,12-trien-9-yl)amino]-3-methoxy-N-(2-methylaminoethyl)benzamide] |
| < 300 nM | < 300 nM | CN1CCC(NC(=O)c2ccc(Nc3ncc4c(n3)N(C3CCCC3)CCC(=O)N4C)c(Cl)c2)CC1 [Example 185, 3-chloro-4-[(6-cyclopentyl-2-methyl-3-oxo-2,6,8,10-tetrazabicyclo[5.4.0]undeca-8,10,12-trien-9-yl)amino]-N-(1-methyl-4-piperidyl)benzamide] |
| < 1000 nM | < 30000 nM | COCCN1CCN(c2ccc(Nc3ncc4c(n3)N(C3CCCC3)CCC(=O)N4C)c(OC)c2)CC1 [Example 105, 6-cyclopentyl-9-[[2-methoxy-4-[4-(2-methoxyethyl)piperazin-1-yl]phenyl]amino]-2-methyl-2,6,8,10-tetrazabicyclo[5.4.0]undeca-8,10,12-trien-3-one] |
| < 300 nM | < 300 nM | COc1cc(C(=O)NCC(C)(C)CN(C)C)ccc1Nc1ncc2c(n1)N(C(C)C)CCC(=O)N2C [Example 208, N-(3-dimethylamino-2,2-dimethyl-propyl)-3-methoxy-4-[(2-methyl-3-oxo-6-propan-2-yl-2,6,8,10-tetrazabicyclo[5.4.0]undeca-7,9,11-trien-9-yl)amino]benzamide] |
| < 300 nM | < 300 nM | COc1cc(C(=O)NCCCCN2CCCC2)ccc1Nc1ncc2c(n1)N(C(C)C)CCC(=O)N2C [Example 209, 3-methoxy-4-[(2-methyl-3-oxo-6-propan-2-yl-2,6,8,10-tetrazabicyclo[5.4.0]undeca-7,9,11-trien-9-yl)amino]-N-(4-pyrrolidin-1-ylbutyl)benzamide] |
| < 300 nM | < 300 nM | CCN1CCC(NC(=O)c2ccc(Nc3ncc4c(n3)N(C3CCCC3)CCC(=O)N4C)c(OC)c2)CC1 [Example 61, 4-[(6-cyclopentyl-2-methyl-3-oxo-2,6,8,10-tetrazabicyclo[5.4.0]undeca-8,10,12-trien-9-yl)amino]-N-(1-ethyl-4-piperidyl)-3-methoxy-benzamide] |
| < 300 nM | < 300 nM | COc1cc(C(=O)NC2CCN(C3CC3)CC2)ccc1Nc1ncc2c(n1)N(C1CCCC1)CCC(=O)N2C [Example 11, 4-[(6-cyclopentyl-2-methyl-3-oxo-2,6,8,10-tetrazabicyclo[5.4.0]undeca-8,10,12-trien-9-yl)amino]-N-(1-cyclopropyl-4-piperidyl)-3-methoxy-benzamide] |
| < 100000 nM | < 30000 nM | CC(=O)Nc1cccc(Nc2ncc3c(n2)N(C2CCCC2)CCC(=O)N3C)c1 [Example 177, N-[3-[(6-cyclopentyl-2-methyl-3-oxo-2,6,8,10-tetrazabicyclo[5.4.0]undeca-8,10,12-trien-9-yl)amino]phenyl]acetamide] |

| Structure (SMILES) | IC50 (recombinant Plk1) | IC50 [1] |
| --- | --- | --- |
| COc1cc(C(=O)NC2C[C@H]3CCC[C@@H](C2)N3C)ccc1Nc1ncc2c(n1)N(C1CCCCC1)CC1(CC1)C(=O)N2C (stereo partly drawn) [Example 432, 4-(9′-cyclohexyl-5′-methyl-6′-oxo-5′,6′,8′,9′-tetrahydrospiro[cyclopropane-1,7′-pyrimido[5,4-b][1,4]diazepine]-2′-ylamino)-3-methoxy-N-[(1S,5R)-9-methyl-9-azabicyclo[3.3.1]non-7-yl]benzamide] | < 300 nM | < 300 nM |
